Data: PubChem BioAssay (NCI)
Several values for one entry are separate records, joined by “and”; a condition that tells them apart may be missing. Equal entries are not always repeated.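 Each compound was tested at five concentrations against cells in 96-well plates for 48 hours. Here, GI50 denotes the concentration required for 50% inhibition of growth. TGI is the concentration that stops growth completely.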

Experiments:
Assay in all cases: growth of human tumour cells (NCI), 48 h
[1] = test system: 786-0 renal
[2] = test system: CCRF-CEM leukemia
[3] = test system: EKVX NSCLC
[4] = test system: IGROV1 ovarian
[5] = test system: NCI/ADR-RES ovarian
[6] = test system: OVCAR-5 ovarian
[7] = test system: SF-539 CNS
[8] = test system: SK-OV-3 ovarian
[9] = test system: SNB-19 CNS
[10] = test system: T-47D breast

Compound	TGI [1]	TGI [2]	TGI [3]	TGI [4]	TGI [5]	TGI [6]	TGI [7]	TGI [8]	TGI [9]	TGI [10]	GI50 [1]	GI50 [2]	GI50 [3]	GI50 [4]	GI50 [5]	GI50 [6]	GI50 [7]	GI50 [8]	GI50 [9]	GI50 [10]
CC(=O)OC1CCC2(C)C(=CCC3C2CCC2(C)C(C(C)C(=O)O)CCC32)C1 (centres undefined)	> 100 µM	> 100 µM	> 100 µM	> 100 µM	> 100 µM	> 100 µM	> 100 µM	> 100 µM	> 100 µM	> 100 µM										
CC[C@H](C)n1cc(C)c2c(C(=O)NCc3c(C)cc(C)[nH]c3=O)cc(-c3ccc(N4CCNCC4)nc3)cc21	24.4 µM and 25.2 µM	35.9 µM and 26.3 µM	27 µM and 27.6 µM	27.4 µM and 33.2 µM	> 100 µM and 33.7 µM	30.5 µM and 29.9 µM	28.5 µM and 26.7 µM	33.5 µM and 28 µM	30.4 µM and 26.8 µM	36.3 µM and 28.4 µM	10.6 µM and 11.7 µM	18 µM and 11.1 µM	12.6 µM and 13.6 µM	12.9 µM and 16.4 µM	35.1 µM and 17.6 µM	16.1 µM and 15.3 µM	15.1 µM and 13 µM	19.1 µM and 14.6 µM	14.9 µM and 12.7 µM	16.6 µM and 11.4 µM
CC(=O)OC(C)(C)N=Nc1ccc(Br)cc1	> 100 µM	> 78.5 µM	> 100 µM	> 100 µM	76.7 µM	> 100 µM	> 100 µM	> 100 µM	> 100 µM	44.4 µM										
Cc1ccccc1N=Nc1c(O)[nH]c2ccccc12	> 100 µM	> 100 µM	> 100 µM	> 100 µM	> 100 µM	> 100 µM		> 100 µM	> 100 µM	> 100 µM										
Oc1cc(O)c2c(=S)cc(-c3ccc(Cl)cc3)oc2c1	22.9 µM	> 63.1 µM	54.1 µM	16.5 µM	10.7 µM	32.5 µM	17.1 µM	18.2 µM	16.3 µM	0.547 µM	7.12 µM	4.02 µM	9.36 µM	0.533 µM	2.8 µM	11.1 µM	3.31 µM	2.77 µM	3.68 µM	0.0304 µM
CC[C@@H](C(=O)[C@@H](C)[C@@H](O)[C@H](C)[C@@H]1O[C@@H]([C@@H](CC)C(=O)O)CC[C@@H]1C)[C@H]1OC2(C=C[C@@H](O)[C@]3(CC[C@@](C)([C@H]4CC[C@](O)(CC)[C@H](C)O4)O3)O2)[C@H](C)C[C@@H]1C (some centres undefined)	12.4 µM	10.7 µM	> 32 µM	> 50 µM	> 50 µM	> 50 µM	8.85 µM	22.6 µM	> 14.2 µM	10.4 µM	0.589 µM	0.285 µM	0.22 µM	1.84 µM	0.434 µM	7.87 µM	0.434 µM	1.76 µM	0.577 µM	0.174 µM
COc1c(CNC(=O)CCl)cc2[nH]c(C)cc2c1CNC(=O)CCl	15.4 µM	> 100 µM	27.5 µM	> 100 µM	> 100 µM	25.9 µM	29.8 µM	86.4 µM	91 µM	23.1 µM	3.8 µM	2.71 µM	11 µM	3.49 µM	56.1 µM	5.44 µM	7.09 µM	12.4 µM	12.5 µM	3.55 µM
